# Data taken from US20260041620A1, “NOVEL AMINO ACID BASED SALTS, COMPOSITIONS AND METHODS FOR TREATING SKIN AND IMPROVING SKIN REJUVENATION AND LONGEVITY” (Sytheon Ltd, priority 2023, published 2026).
# Key:
# FABP-5 = target: T1, FABP-5 (Homo sapiens, UniProt Q01469); assay: FABP-5 ELISA inhibitory assay; assay type: biochemical
# T1 construct: purchased Raybiotech 268-10276-1
# FABP-3 = target: T2, FABP-3 (Homo sapiens, UniProt P05413); assay: FABP-3 ELISA inhibitory assay; assay type: biochemical
# T2 construct: purchased Neovateinbio PT-452
# MAGL = target: T3, MAGL (Homo sapiens, UniProt Q99685); assay: MAGL inhibitory assay; assay type: biochemical
# T3 construct: purchased Cayman 10007812
# T3 sequence (Q99685 1-303): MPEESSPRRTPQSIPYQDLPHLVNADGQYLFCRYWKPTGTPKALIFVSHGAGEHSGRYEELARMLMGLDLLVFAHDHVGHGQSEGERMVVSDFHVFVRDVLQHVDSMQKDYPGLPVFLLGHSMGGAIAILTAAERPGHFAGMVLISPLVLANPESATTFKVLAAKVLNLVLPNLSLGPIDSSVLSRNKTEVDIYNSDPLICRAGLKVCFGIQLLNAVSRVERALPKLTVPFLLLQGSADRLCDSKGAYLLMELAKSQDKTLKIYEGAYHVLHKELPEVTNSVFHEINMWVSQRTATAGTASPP
# Description: Each study was performed in duplicate and the results averaged.
# The final concentration in each well was 10 μl of sample, 5.6 μM MAGL (Cayman Catalog #10007812) and 23.6 μM 2-Arachidonoyl Glycerol (Cayman catalog #62160).
# FAAH = target: T4, FAAH (Homo sapiens, UniProt O00519); assay: FAAH fluorescence-based inhibitory assay; assay type: biochemical
# T4 sequence (O00519 1-579): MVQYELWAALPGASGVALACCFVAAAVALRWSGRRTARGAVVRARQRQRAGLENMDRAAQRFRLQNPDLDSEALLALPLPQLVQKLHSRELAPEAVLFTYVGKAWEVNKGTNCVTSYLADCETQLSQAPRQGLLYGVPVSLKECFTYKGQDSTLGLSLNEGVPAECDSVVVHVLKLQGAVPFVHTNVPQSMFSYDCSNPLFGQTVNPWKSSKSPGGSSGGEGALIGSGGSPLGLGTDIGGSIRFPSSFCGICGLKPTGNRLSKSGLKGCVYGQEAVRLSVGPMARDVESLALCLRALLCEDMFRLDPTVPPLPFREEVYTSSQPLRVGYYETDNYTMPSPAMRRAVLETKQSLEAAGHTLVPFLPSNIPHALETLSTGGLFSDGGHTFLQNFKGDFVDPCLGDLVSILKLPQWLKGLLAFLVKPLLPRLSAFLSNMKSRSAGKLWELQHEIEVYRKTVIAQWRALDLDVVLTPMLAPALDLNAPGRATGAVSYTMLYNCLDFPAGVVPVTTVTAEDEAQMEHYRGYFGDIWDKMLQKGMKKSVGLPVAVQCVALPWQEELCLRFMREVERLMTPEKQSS
# HDAC 4 = HDAC 4 (Homo sapiens, UniProt P56524); assay: HDAC 4 fluorogenic assay kit
# Sequence of HDAC 4 (P56524 whole entry): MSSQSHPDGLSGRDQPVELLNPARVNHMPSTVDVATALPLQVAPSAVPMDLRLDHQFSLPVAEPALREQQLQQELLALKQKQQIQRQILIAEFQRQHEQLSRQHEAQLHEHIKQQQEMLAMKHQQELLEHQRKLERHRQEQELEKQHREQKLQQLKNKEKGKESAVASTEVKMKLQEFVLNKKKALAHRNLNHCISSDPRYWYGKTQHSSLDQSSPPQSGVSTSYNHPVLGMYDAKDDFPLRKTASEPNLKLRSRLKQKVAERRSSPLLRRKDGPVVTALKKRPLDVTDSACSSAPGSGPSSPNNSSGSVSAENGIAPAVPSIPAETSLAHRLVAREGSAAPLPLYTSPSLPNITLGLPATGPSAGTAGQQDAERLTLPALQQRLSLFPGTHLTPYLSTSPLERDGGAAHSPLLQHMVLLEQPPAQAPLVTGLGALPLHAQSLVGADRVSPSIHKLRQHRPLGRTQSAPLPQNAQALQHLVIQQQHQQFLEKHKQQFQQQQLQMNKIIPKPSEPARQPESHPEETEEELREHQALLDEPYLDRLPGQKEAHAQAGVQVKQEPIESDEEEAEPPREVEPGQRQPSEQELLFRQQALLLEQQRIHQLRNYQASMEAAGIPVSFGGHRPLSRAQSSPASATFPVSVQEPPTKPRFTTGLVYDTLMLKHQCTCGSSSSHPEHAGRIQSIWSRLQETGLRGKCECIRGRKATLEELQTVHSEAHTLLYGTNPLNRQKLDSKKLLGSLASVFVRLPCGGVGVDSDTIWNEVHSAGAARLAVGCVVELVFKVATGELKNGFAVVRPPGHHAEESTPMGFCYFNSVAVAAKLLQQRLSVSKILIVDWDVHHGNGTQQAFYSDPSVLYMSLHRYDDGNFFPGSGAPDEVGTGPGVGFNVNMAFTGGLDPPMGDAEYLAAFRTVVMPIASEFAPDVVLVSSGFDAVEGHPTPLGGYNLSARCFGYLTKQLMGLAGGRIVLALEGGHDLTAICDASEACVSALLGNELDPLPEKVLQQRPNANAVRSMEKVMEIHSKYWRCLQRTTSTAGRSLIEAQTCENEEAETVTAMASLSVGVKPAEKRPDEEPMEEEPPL
# T1 sequence (Q01469 whole entry): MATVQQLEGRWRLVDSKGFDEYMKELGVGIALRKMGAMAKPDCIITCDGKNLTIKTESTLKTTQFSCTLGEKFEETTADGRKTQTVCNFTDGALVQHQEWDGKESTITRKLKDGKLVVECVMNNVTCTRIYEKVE
# T2 sequence (P05413 whole entry): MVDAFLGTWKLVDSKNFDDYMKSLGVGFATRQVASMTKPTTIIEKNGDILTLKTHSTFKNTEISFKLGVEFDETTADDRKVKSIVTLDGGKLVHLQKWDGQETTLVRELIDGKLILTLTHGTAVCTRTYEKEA
substance,measurement,setting,value
calcium dilysinate [Ca dilysinate],FABP-5 IC50,FABP-5,871.4 µg/mL
same,FABP-3 IC50,FABP-3,208.6 µg/mL
same,MAGL IC50,MAGL,856.0 µg/mL
same,FAAH IC50,FAAH,445.1 µg/mL
same,"HDAC 4 activity, % of water-treated controls",HDAC 4; 25 ug/ml,109%
same,"HDAC 4 activity, % of water-treated controls",HDAC 4; 50 ug/ml,101%
same,"HDAC 4 activity, % of water-treated controls",HDAC 4; 100 ug/ml,107%
